Data as given in US10562857B2 (AFASCI, Inc., priority 2015, dated 2020).
Entries after “also recorded” stand apart in the source; their conditions may differ.

Columns and labels:
Cav3.2 channel = target: T1, Cav3.2 channel (Homo sapiens, UniProt O95180); assay: Whole-cell patch clamp of T-type Cav3.2 channel expressed in HEK293 cells; format: cell-based; settings: for inhibition at 1 µM: HEK293, Table 1 primary screening
T1 construct: expressed in transfected cells; host or cells: HEK-293, tetracycline inducible expression system (Invitrogen)
T1 sequence (O95180 whole entry): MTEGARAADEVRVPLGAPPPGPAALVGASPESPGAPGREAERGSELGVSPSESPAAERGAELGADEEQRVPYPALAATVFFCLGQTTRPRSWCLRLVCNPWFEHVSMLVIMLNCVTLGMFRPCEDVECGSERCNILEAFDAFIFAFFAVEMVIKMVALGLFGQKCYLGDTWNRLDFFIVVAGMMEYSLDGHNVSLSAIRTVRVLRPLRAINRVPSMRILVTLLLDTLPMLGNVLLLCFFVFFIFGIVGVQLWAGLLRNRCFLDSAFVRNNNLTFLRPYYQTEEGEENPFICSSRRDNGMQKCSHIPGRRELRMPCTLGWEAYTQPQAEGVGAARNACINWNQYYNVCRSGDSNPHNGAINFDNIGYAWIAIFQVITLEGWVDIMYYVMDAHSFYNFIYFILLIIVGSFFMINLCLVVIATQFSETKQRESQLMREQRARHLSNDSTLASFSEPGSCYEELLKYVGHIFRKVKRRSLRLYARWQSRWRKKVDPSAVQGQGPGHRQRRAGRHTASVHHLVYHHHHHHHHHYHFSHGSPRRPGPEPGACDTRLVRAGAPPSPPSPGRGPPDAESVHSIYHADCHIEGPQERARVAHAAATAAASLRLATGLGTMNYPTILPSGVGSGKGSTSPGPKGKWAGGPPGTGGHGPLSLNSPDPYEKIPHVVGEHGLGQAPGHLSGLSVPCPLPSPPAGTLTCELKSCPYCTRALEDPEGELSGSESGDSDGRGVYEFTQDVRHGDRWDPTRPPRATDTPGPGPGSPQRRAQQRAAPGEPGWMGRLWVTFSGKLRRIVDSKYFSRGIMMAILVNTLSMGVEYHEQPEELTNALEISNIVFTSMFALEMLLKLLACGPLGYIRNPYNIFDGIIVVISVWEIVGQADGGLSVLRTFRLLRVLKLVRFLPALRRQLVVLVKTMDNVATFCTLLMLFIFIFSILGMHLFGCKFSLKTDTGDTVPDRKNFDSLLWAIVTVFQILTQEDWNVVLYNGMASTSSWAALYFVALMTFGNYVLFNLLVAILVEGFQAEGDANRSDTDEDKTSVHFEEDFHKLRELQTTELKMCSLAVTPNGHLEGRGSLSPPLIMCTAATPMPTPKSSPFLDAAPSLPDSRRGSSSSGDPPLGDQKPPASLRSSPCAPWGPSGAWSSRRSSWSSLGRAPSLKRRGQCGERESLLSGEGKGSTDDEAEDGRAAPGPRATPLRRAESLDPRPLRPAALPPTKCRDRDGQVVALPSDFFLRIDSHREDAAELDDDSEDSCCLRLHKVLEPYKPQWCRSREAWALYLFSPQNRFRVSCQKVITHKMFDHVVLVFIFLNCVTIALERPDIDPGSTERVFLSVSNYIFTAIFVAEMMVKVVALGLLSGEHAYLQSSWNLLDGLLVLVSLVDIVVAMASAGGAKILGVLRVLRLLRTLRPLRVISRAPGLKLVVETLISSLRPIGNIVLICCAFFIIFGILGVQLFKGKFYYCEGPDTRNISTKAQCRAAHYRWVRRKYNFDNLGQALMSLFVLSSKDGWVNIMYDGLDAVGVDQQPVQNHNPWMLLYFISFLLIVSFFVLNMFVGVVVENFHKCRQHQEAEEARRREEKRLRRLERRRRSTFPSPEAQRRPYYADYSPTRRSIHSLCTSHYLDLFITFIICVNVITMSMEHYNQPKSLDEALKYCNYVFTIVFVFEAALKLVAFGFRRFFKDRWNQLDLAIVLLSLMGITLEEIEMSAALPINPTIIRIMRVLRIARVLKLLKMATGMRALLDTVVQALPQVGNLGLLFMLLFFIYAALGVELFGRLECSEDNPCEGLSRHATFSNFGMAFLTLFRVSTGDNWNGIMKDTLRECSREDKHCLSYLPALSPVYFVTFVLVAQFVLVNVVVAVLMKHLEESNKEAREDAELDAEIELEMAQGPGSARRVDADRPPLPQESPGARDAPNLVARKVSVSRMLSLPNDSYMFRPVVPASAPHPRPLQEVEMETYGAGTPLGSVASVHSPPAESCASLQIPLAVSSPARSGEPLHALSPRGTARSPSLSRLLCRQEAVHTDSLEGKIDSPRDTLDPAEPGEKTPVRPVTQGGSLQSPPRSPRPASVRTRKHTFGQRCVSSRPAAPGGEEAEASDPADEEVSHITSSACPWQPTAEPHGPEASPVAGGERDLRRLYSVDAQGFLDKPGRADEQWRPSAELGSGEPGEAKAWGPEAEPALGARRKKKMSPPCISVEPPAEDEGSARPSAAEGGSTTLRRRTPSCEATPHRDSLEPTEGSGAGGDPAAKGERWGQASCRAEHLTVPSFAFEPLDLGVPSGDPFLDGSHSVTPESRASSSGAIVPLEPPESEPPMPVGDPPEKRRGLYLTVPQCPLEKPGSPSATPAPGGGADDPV

SNI rats [1] = assay: Spared nerve injury (SNI) rats, Hargreaves thermal test; format: in vivo, rat; settings: 30 mg/kg, 1 mL I.P.
Method: FIG. 3A. Spared Nerve Injury (SNI) rats' left hindpaw withdrawal latencies in response to thermal stimulation (Hargreaves test). Each SNI rat received either EXAMPLE-106, 107, or 115, (each 30 mg/kg, 1 mL I.P.), or vehicle (2% DMSO in 0.5% HPC). Sham rats also received vehicle I.P. injections. […] 40 seconds were cutoff in order to prevent tissue damage. The sham-vehicle serves as a positive control (n=8 per treatment group).
(§1) In additional examples shown here, the analgesic effects were further evaluated in another rat species. Baseline thermal and mechanical thresholds of male rats (Sprague-Dawley rats, 275 g-325 g, Harlan) were taken prior to surgery; baseline thresholds were measured on the rats' left hindpaws. Thirty-two rats underwent the SNI surgery on their left hind leg; 8 rats underwent surgery without injury of the nerves as a sham group. Two weeks post-surgery, the thermal thresholds of each rat were reassessed. […] Each rat received either EXAMPLE-106, -107, -115 (each 30 mg/kg, 1 mL I.P.), or vehicle (2% DMSO in 0.5% HPC). Thermal and mechanical thresholds were measured at 1, 2, 3, 4, 5, 6, 7, and 8 hours post-treatment/dosing. […] The drug actions started around 1 hour post-injection and peaked between 2 and 3 hours, and the drug effects gradually declined to pre-treatment levels over 6-7 hours (FIGS. 3A and B).

SNI rats [2] = assay: Spared nerve injury (SNI) rats, von Frey monofilament test; format: in vivo, rat; settings: for start of drug action post-injection: 30 mg/kg I.P., thermal and mechanical thresholds; for mechanical pain threshold of left hindpaw (allodynia): 30 mg/kg, 1 mL I.P.
Method: FIG. 3B. Mechanical pain threshold assessment (von Frey monofilament test) of SNI rats' left hindpaws. Each SNI rat received either EXAMPLE-106, -107, and -115 (each 30 mg/kg, 1 mL I.P.), or vehicle (1 mL I.P. 2% DMSO in 0.5% HPC). Sham rats also received vehicle I.P. injections. […] The sham-vehicle serves as a positive control. Thermal and mechanical pain responses were measured once every hour for 8 consecutive hours after I.P. treatment (n=8 rats per treatment group).
FIG. 4. Mechanical pain threshold assessment (von Frey monofilament test) of left hindpaws in another cohort of SNI rats. Each SNI rat received either EXAMPLE-128, -130, -132, or Z944 (as a reference compound, each 10 mg/kg, 2 mL oral gavage, P.O.). […] Mechanical pain responses were measured at pre-dosing, 1, 2, 4, and 6 hours post-treatment using von Frey monofilament test (n=8 rats per group).
as §1
In another cohort of SNI rats ((n=8 per group)), mechanical thresholds were measured at pre-dosing, 1, 2, 4, and 6 hours post-treatment using von Frey monofilament test.

CFA mice = assay: Complete Freund's Adjuvant (CFA)-induced inflammatory pain in mice, von Frey test; format: in vivo, mouse; settings: 30 mg/kg I.P.
Method: FIG. 7. Effects of EXAMPLE-96, 107 or 115 (each 30 mg/kg, I.P.) or gabapentin (as a benchmark, 100 mg/kg, I.P) on Complete Freund's Adjuvant (CFA)-induced inflammation in male, mice (C57BL/6, ˜2 months old; n=8 mice per group). Mechanical pain threshold assessment of CFA mice's left hindpaws were measured using von Frey monofilament test at 0.5, 1, 2, 4, and 6 hours after treatment.
Because knockout or antisense knockdown of the Cav3.2 isoform produces analgesic effects in neuropathic pain as well as in inflammatory pain in mice (Choi et al., 2007), we used the Complete Freund adjuvant (CFA)-inflammatory pain in mice to investigate the drug effects. EXAMPLE-96, -115, and -107 (each at 30 mg/kg, I.P.) and a reference gabapentin (100 mg/kg, I.P.) was individually administered to mice that had CFA-induced inflammation on their left hindpaws.

[3] = test system: incision-induced pain in mice; assay: Incision-induced acute pain in mice, von Frey test; format: in vivo, mouse; settings: 30 mg/kg I.P.
Method: FIG. 9. Effects of EXAMPLE-116, -118 or ML218 (a reference compound) on incision-induced acute pain in mice (C57BL/6, male, ˜2 months old; n=8 mice per treatment group). Mechanical pain threshold assessment (von Frey monofilament test) of the mice's incision left hindpaws. Each mouse received either EXAMPLE-116, -118, or ML218 (as a reference compound, each 30 mg/kg, I.P.) or vehicle (2% DMSO in 0.5% HPC, I.P.). Mechanical pain responses were measured at 0.5, 1, 2, 4, and 5 hours after treatment.
To further confirm the Cav3 modulator effects on acute pain and neurogenic inflammatory pain, an incision-pain mode in mice was used. Postoperative pain model induced by a deep incision in the hindpaw produces robust mechanical allodynia (Pogatzki et al., 2003). Mechanical pain thresholds were assessed using von Frey monofilament test of the incised left hindpaws. Each mouse received either EXAMPLE-116, -118, ML218 (as a reference compound, each 30 mg/kg, I.P.) or vehicle (2% DMSO in 0.5% HPC, I.P., n=8 mice per treatment group). Mechanical pain responses were measured at 0.5, 1, 2, 4, and 5 hours after treatment.

T-type Ca2+ current = settings: Avdonin et al., 2000; cited from earlier work
[4] = test system: taxol-induced neuropathic pain model in mice; assay: Taxol-induced neuropathic pain in mice, von Frey test; format: in vivo, mouse; settings: 30 mg/kg I.P.
Method: FIG. 6A. Effects of EXAMPLE-115 on taxol (4 mg/kg, I.P.)-induced neuropathic pain model in mice. Mechanical pain thresholds of left hindpaws were assessed using von Frey monofilament test. Each mouse received either EXAMPLE-115 (3, 10 or 30 mg/kg, I.P.) or vehicle (2% DMSO in 0.5% HPC, I.P.; n=8 per group). Injection of taxol lowered mechanical pain thresholds.
FIG. 6B. Effects of EXAMPLE-123 on taxol (4 mg/kg, I.P.)-induced neuropathic pain model in a separate cohort of mice. Mechanical pain thresholds of left hindpaws were assessed using von Frey monofilament test. Each mouse received either EXAMPLE-123 (30 mg/kg, I.P., n=8) or vehicle (2% DMSO in 0.5% HPC, I.P.).
Chemotherapy-induced painful neuropathy is a common side effect associated with chronic treatment with Taxol (paclitaxel) or other anticancer drugs based on cytotoxicity. Taxol or paclitaxel is one of the most popular drugs used for the treatment of various cancers (Chaudhry et al., 1994). The chemotherapy-induced peripheral neuropathy manifests as chronic hyperalgesia and other sensory abnormalities. Taxol (Sigma, 4.0 mg/kg, I.P.) was dissolved in saline containing 5% DMSO (vehicle) and injected to mice (freshly prepared before injection).

Row | Compound | inhibition at 1 µM (Cav3.2 channel) [%] | left hindpaw withdrawal latency to thermal stimulation (hyperalgesia) (SNI rats [1]) | start of drug action post-injection (SNI rats [2]) | mechanical pain threshold of left hindpaw (allodynia) (SNI rats [2]) | mechanical pain threshold, incision-induced pain [3] | other results
1 | CC1(CNC(=O)c2ccccc2)CCN(CC(=O)NC(C)(C)C)CC1 [Example 107, N-((1-(2-(tert-butylamino)-2-oxoethyl)-4-methylpiperidin-4-yl)methyl)benzamide] | 21 | elevated both thermal and mechanical thresholds; also recorded: reduced hyperalgesia | around 1 hour | elevated both thermal and mechanical thresholds; also recorded: reduced allodynia | – | mechanical pain threshold, CFA-induced inflammation (CFA mice): showed an analgesic effect in mechanical pain
2 | O=C(Nc1nnc(-c2ccc(Cl)s2)o1)N1C(=O)c2cc(Cl)c(Cl)cc2C1=O [Example 116, 5,6-Dichloro-N-(5-(5-chlorothiophen-2-yl)-1,3,4-oxadiazol-2-yl)-1,3-dioxoisoindoline-2-carboxamide] | 10 | – | – | – | inhibited incision-induced inflammatory pain | –
3 | O=C(CCc1cccc(Cl)c1)Nc1nnc(-c2ccc(Cl)s2)o1 [Example 118, 3-(3-Chlorophenyl)-N-(5-(5-chlorothiophen-2-yl)-1,3,4-oxadiazol-2-yl)propanamide] | 20 | – | – | – | inhibited incision-induced inflammatory pain | –
4 | COCC(=O)O[C@]1(CCN(C)CCCc2nc3ccccc3[nH]2)CCc2cc(F)ccc2[C@@H]1C(C)C [mibefradil] | – | – | – | – | – | potency of T-type inhibition relative to L-type Ca2+ current or voltage-gated Na+ current (T-type Ca2+ current): 3-10 times
5 | O=C(CN1CCC(CNCC(=O)c2ccc[nH]2)CC1)Nc1ccccc1 [Example 106, 2-(4-(((2-Oxo-2-(1H-pyrrol-2-yl)ethyl)amino)methyl)piperidin-1-yl)-N-phenylacetamide] | – | elevated both thermal and mechanical thresholds; also recorded: reduced hyperalgesia | around 1 hour | elevated both thermal and mechanical thresholds; also recorded: reduced allodynia | – | –
6 | O=C(CNc1ccccc1)Nc1nnc(-c2ccccc2)o1 [Example 123, N-(5-Phenyl-1,3,4-oxadiazol-2-yl)-2-(phenylamino)acetamide] | – | – | – | – | – | IC50 (Cav3.2 channel; Table 1, tested at at least 4 concentrations, read-out: IC50): 5.1 µM; duration of reduction of taxol-induced neuropathic pain [4]: at least 5 hours; mechanical pain threshold, taxol-induced neuropathic pain ([4]; taxol 4 mg/kg I.P.): caused significant effects on Taxol-induced pain; also recorded: reduced the taxol-induced neuropathic pain
